13 molecules from ChEMBL document CHEMBL1140303, “Pharmacophore, drug metabolism, and pharmacokinetics models on non-peptide AT1, AT2, and AT1/AT2 angiotensin II receptor antagonists” (J Med Chem, 2005) can be followed below.

Data set [1] is described as follows: Time required for elimination of 50% of the compound. The class given is ADME. The settings on record: human.
Data set [2] concerns the target T1, Type-1 angiotensin II receptor (Homo sapiens) (UniProt P30556).
T1 sequence (whole entry): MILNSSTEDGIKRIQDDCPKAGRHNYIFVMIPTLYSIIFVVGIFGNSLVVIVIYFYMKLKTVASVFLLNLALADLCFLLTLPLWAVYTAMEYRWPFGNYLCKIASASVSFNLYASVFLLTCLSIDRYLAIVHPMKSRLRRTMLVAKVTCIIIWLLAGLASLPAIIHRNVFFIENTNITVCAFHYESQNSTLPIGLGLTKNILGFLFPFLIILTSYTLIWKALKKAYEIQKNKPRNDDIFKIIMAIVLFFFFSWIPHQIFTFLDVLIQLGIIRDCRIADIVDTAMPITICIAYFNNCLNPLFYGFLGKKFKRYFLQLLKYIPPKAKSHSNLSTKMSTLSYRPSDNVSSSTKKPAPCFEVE
Put plainly: Time to maximal effect against human Angiotensin II receptor type 1.

The target of data set [3] is T1, Type-1 angiotensin II receptor (Homo sapiens).
Description: pKa value against human Angiotensin II receptor type 1
A short description of data set [4]: Percentage modification of drug adsorbed after administration to human. Type of data set: ADME.
For data set [5], the target named is T1, Type-1 angiotensin II receptor (Homo sapiens). In words: Binding affinity for AT1 receptor.
Data set [6] is described as follows: Oral bioavailability. Type of data set: ADME, organism-based. The settings on record: human, in vivo.
Data set [7] concerns the target T1, Type-1 angiotensin II receptor (Homo sapiens). Put plainly: Time to maximal plasma concentration of the drug in human.
Data set [8] in a line: Volume distribution was determined. The settings on record: human, in vivo. Type of data set: ADME, organism-based.

In the case of `CCOc1nc2cccc(C(=O)O)c2n1Cc1ccc(-c2ccccc2-c2nnn[nH]2)cc1`, the half-life in data set [1] was 11 h. For the same molecule, the Tmax in data set [2] was found to be 4 h. The molecule further returned a pKa in data set [3] of 3.9. Also, the “Modification of adsorbed drug” value in data set [4] was determined as 20%. Moreover, the Affinity in data set [5] stood at 0.1 nM. In addition, the bioavailability in data set [6] was 40%.

On to `CCCc1nc2c(C)cc(-c3nc4ccccc4n3C)cc2n1Cc1ccc(-c2ccccc2C(=O)O)cc1`, for which, in data set [1], the half-life is 24 h. Also, the Tmax in data set [7] worked out at 1 h. This molecule also showed a pKa in data set [3] of 4.5. In addition, the “Modification of adsorbed drug” value in data set [4] was 16%. Also, the Affinity in data set [5] is 1 nM. Also, the Vd in data set [8] was determined as 4.54 L/kg. The molecule further returned a bioavailability in data set [6] of 58%.

As for `CCCCC(=O)N(Cc1ccc(-c2ccccc2-c2nnn[nH]2)cc1)[C@H](C(=O)O)C(C)C`, the half-life in data set [1] is 6.1 h. For the same molecule, the Tmax in data set [7] turned out to be 4 h. For the same molecule, the “Modification of adsorbed drug” value in data set [4] was 9%. For the same molecule, the Affinity in data set [5] is 1.7 nM. In data set [8], this molecule registered a distribution volume (Vd) of 0.22 L/kg. In data set [6], this molecule showed a bioavailability of 25%.

Consider `CCCCc1nc(Cl)c(CO)n1Cc1ccc(-c2ccccc2-c2nnn[nH]2)cc1`, for which the Tmax in data set [7] is 1 h. This molecule registered a pKa in data set [3] of 4.9. This molecule came in with an Affinity in data set [5] of 6.4 nM.

For `CCCCc1nc(Cl)c(CO)n1Cc1ccc(-c2ccccc2C(=O)O)cc1`, in data set [5], the Affinity was found to be 230 nM.

Regarding `CCc1nc2c(C)cc(C)nc2n1Cc1ccc(-c2ccccc2-c2nn[nH]n2)cc1`, the Affinity in data set [5] was 0.5 nM.

As to `Cc1nc(C)c2c(O)cc(=O)n(Cc3ccc(-c4ccccc4-c4nn[nH]n4)cc3)c2n1`, in data set [7], the Tmax is 1 h. Besides, the Affinity in data set [5] worked out at 0.4 nM.

In turn, `CCCCc1nc(Cl)c(C(=O)O)n1Cc1ccc(-c2ccccc2-c2nn[nH]n2)cc1` [CARBOXYLIC ACID METABOLITE] had a half-life in data set [1] of 6.4 h. Besides, in data set [7], the Tmax turned out to be 3 h. The pKa in data set [3] stood at 2.8. In data set [5], this molecule gave an Affinity of 1.3 nM.

As to `Cc1nc(C)c2c(O)cc(=O)n(Cc3ccc(-c4ccccc4-c4nnn[nH]4)cc3)c2n1` [ENOLTASOSARTAN], the half-life in data set [1] is 40 h.

In the case of `CCCCc1ncc(/C=C(\Cc2cccs2)C(=O)O)n1Cc1ccc(C(=O)O)cc1` [EPROSARTAN], in data set [1], the half-life was 7 h. Further, in data set [7], the Tmax turned out to be 13 h. The molecule also showed a pKa in data set [3] of 5. In data set [4], the “Modification of adsorbed drug” value was 20%. The molecule further displayed an Affinity in data set [5] of 9.2 nM. The Vd in data set [8] is 0.16 L/kg. The same molecule registered a bioavailability in data set [6] of 13%.

In data set [1], `CCCCC1=NC2(CCCC2)C(=O)N1Cc1ccc(-c2ccccc2-c2nnn[nH]2)cc1` [IRBESARTAN] showed a half-life of 21 h. In data set [7], the Tmax turned out to be 2.5 h. In data set [3], this molecule displayed a pKa of 4.7. In data set [4], the “Modification of adsorbed drug” value is reported as 20%. The Affinity in data set [5] was 1.3 nM. This molecule also displayed a Vd in data set [8] of 0.9 L/kg. The molecule also had a bioavailability in data set [6] of 70%.

In data set [1], `CCCCc1nc(Cl)c(CO)n1Cc1ccc(-c2ccccc2-c2nn[nH]n2)cc1` [LOSARTAN] showed a half-life of 3.2 h. Also, the “Modification of adsorbed drug” value in data set [4] came to 75%. In data set [8], this molecule displayed a VD of 0.38 L/kg.

`Cc1nc(C)c2c(n1)N(Cc1ccc(-c3ccccc3-c3nnn[nH]3)cc1)C(=O)CC2` [TASOSARTAN] showed a half-life in data set [1] of 15 h. Further, the Tmax in data set [7] amounted to 0.5 h. The molecule further returned a pKa in data set [3] of 5. Also, the “Modification of adsorbed drug” value in data set [4] amounted to 2%. Besides, the Affinity in data set [5] was 1.2 nM. This molecule also returned a bioavailability in data set [6] of 60%.

Usually half-life stands for the time needed for the level to fall by half in the phase considered. As usually defined, the bioavailability is the share of a dose that reaches the circulation, judged against a reference dose that is usually intravenous. A high value points to much systemic uptake. Broadly, the Vd is a proportionality between amount in the body and measured concentration, not a real space. Low readings indicate little distribution into tissue, high ones wide distribution into tissue.
